These results are taken from US20100286247A1, “Methods of Protection from Oxidative Stress” (Trustees of Boston University, priority 2005, published 2010).

“Also recorded” adds a separate entry of the source. {P} = phosphate Some results are limits rather than exact numbers.

One data set concerns SOD2 protein. The experiment in a line: Western blot analysis of antioxidant enzymes: SOD2 protein. The format is cell-based, human. The protocol: Cell lysates were harvested at various intervals after T-oligo treatment in harvest buffer containing 0.25 M Tris HCl (pH 7.5), 0.375 M NaCl, 2.5% sodium deoxycholate, 1% Triton X-100, 25 mM MgCl2, 0.1 mg/ml aprotinin (Sigma, St. Louis, Mo.) and 1 mM phenylmethyl sulfonyl flouride (PMSF) (Sigma). Samples were sheared through a fine needle syringe, sonicated, centrifuged and the supernatant was isolated. Total cellular protein concentrations were determined spectrophotometrically with the Bio-Rad protein assay (Bio-Rad Laboratories, Inc, Hercules, Calif.). Equal amounts of total protein from each sample (35-65 μg) were separated by 10-15% polyacrylamide gel electrophoresis, and transferred to nitrocellulose membranes. After transfer, gels were stained with Coomassie Blue (Sigma) to ascertain evenness of loading.
Membranes were reacted with antibodies diluted in Tris-based buffer with nonfat milk powder as a blocking agent. […] Antibody binding was detected with electrochemical luminescence (ECL kit, NEN Life Science Products, Inc.) and exposure to XAR film (Eastman Kodak Co.).
Northern and western films as well as stained membranes and pictures of ethidium bromide-stained gels were digitally scanned and analyzed by densitometry. […]
For orientation: In western blotting, separated proteins are transferred to a membrane and probed.

Data set [1] deals with intracellular ROS in normal newborn human dermal fibroblasts. Description: Dichlorofluorescein diacetate (DCF) assay of intracellular ROS, FACScan. Format: cell-based. Particulars: for DCF fluorescence (intracellular ROS) compared to diluent: 100 μM pTT / pCC, 40 μM TO / TOC1 / TOC2. The protocol:
Normal newborn human dermal fibroblasts were cultured from foreskin specimens into DMEM supplemented with 10% CS as described above. Due to the large number of cells needed for time course experiments, and to minimize donor variability, in dichlorofluorescein diacetate FACS experiments cells from three different donors were combined.
Purified lyophilized oligonucleotides were obtained and prepared for cell treatment as described above. All treatments involved a single stimulation with T-oligo, after which cells were harvested at various times without medium changes or addition of more T-oligo. Treatment doses were 100 μM pTT and 40 μM TO except in dose-response experiments; these concentrations were determined in previous experiments to be optimal for measuring DNA damage responses using these T-oligos.^142,150,228
Complementary and scrambled oligonucleotides were chosen for each T-oligo. pAA and pCC were used as controls for pTT, and the complementary 11-base pCTAACCCTAAC (TOC1, SEQ ID NO: 22) and a scrambled sequence pGATCGATCGAT (TOC2, SEQ ID NO: 23) were used as controls for the T-oligo TO.
H2DCFDA stock solution (1 mg/ml) was thawed and diluted in Hanks' Balanced Salt Solution, 1× liquid without phenol red (GIBCO Invitrogen, Carlsbad, Calif.), to a working concentration of 100 μM immediately before use. H2DCFDA is converted by intracellular esterases to dichlorofiuorescein (DCF). When oxidized by intracellular ROS, it will fluoresce at 530 nm when excited by 480 nm light. […] All work involving DCF was conducted in minimal room light. Peaks on FACScan plots that shift to the right indicate greater fluorescence and increased ROS levels. For NADPH oxidase inhibitor studies using DPI,^237,239 the DPI stock solution was added directly to DCF treatment solution to achieve a final DPI treatment concentration of 50 μM.
Hydrogen peroxide positive controls were used to rule out saturation of the DCF probe in the T-oligo dose response experiments. Fibroblasts were exposed to 1 mM, 5 mM and 10 mM H2O2 solutions in PBS for 15 minutes following DCF incubation for 30 minutes, harvested and analyzed as described above.
The horseradish peroxidase assay data was analyzed by one-way ANOVA. DCF assay FACScan results were analyzed using Cellquest software (Becton-Dickinson, Calif.). All peak positions on x-axis of the fluorescence histogram plot were determined visually (using the software) and recorded as a number. Peak position values were then compared using one-way ANOVA.

For data set [2], the system named is human newborn fibroblasts. Description: Propidium iodide (PI) staining of nonviable cells. Particulars: doses 25-250% of standard dose (40 μM TO, 100 μM pTT); positive control 1 mM H2O2. The format is cell-based. How it is done: Propidium iodide (PI, Sigma) was used to stain nonviable cells for some experiments. PI stock solution (1 mg,/ml) was added to samples immediately after harvesting to achieve a final concentration of 2 μg/ml.
To better characterize the dose effects of different pTT and 11-base T-oligo doses, a dose response study was conducted. For each T-oligo the doses were 25-250% of the standard dose used (40 μM for TO and 100 μM for pTT). […] Panel C is a compilation of the maximum DCF peak shifts measured with each treatment: diluent, 250 μM pTT, 100 μM TO and 1 mM as the positive control. […] There is a significant difference in DCF fluorescence stimulated by the two treatments when the same doses were used (25, 40 and 100 μM) (2-way ANOVA, p=0.0038).

The subject of a further data set is human dermal fibroblasts. Description: Senescence-associated β-galactosidase (SA-β-gal) assay. Format: cell-based. Particulars: for SA-β-gal positive cells, result in words: up to 72 hours of treatment. The text has this: Subconfluent senescent fibroblasts were found by Dimri et al. to stain blue in an assay that measures β-galactosidase activity at pH 6.0.^240 As per their protocol, cells were fixed with a 2% formaldehyde and 0.2% glutaraldehyde solution, washed, and stained overnight in X-gal solution. The next day, 3-4 photographs were taken of representative fields in each plate under a 10× microscope objective using coded labels. The number of blue (senescent) cells in each photograph could then be determined in a blinded fashion. The SA-β-gal assay was performed in parallel with the DCF time-course experiments, using the same mixture of donor cells and seeding densities.

Regarding “pGTTAGGGTTAG (5' {P}, sugars by position and backbone not given here) [TO]”, in the data set with SOD2 protein (40 μM, within several hours, up to 168 hours), the SOD2 protein level result is given as “induced”. Also, in data set [1] (40 μM TO compared to 100 μM pTT), the “maximum amount of DCF fluorescence, TO vs pTT” value was “greater than ROS stimulated by pTT-treated cells”. For the same substance, in data set [1], the “DCF fluorescence (intracellular ROS) compared to diluent” value is on record as “statistically significant increase in DCF fluorescence”. Further, the “time measurable ROS stimulation starts” value in data set [1] (FIG. 14 donor cells, 100 μM pTT, 40 μM TO) was 36 h. Further, the “time of measurable ROS stimulation” value in data set [1] (FIG. 16 representative time course, donor variability) is not above 36 h. For the same substance, the “ROS production (DCF fluorescence) relative to pTT at the same dose” value in data set [1] (within 72 hours, 25, 40 and 100 μM doses) is recorded as “up to 1.5 times”. Besides, in data set [2], the “PI fluorescence (toxicity / nonviable cells)” value is on record as “less than that induced by the positive control; also recorded: comparable to diluent treatment”. Also, in the data set on human dermal fibroblasts, the “SA-β-gal positive cells, result in words” value is reported as “did not display S.A. β-gal activity”.

As to “5′-phosphorylated thymidine dinucleotides [pTT]”, the “SOD2 protein maximal relative induction compared to diluent” value in the data set on SOD2 protein (100 μM pTT, at 24 hours, three donors, mean±SEM) is 31% (±20%). Moreover, the “DCF fluorescence (intracellular ROS) compared to diluent” value in data set [1] was “statistically significant increase in DCF fluorescence”. Further, in data set [2], the “PI fluorescence (toxicity / nonviable cells)” value is reported as “less than that induced by the positive control; also recorded: comparable to diluent treatment”. For the same substance, the “cells staining positive in the SA-β-gal assay” value in the data set with human dermal fibroblasts (40 μM TO or 100 μM pTT, 24-72 hours of treatment) is “Less than 10%”. Moreover, the “SA-β-gal positive cells, result in words” value in the data set on human dermal fibroblasts is listed as “did not result in a significant number of SA-β-gal cells; also recorded: did not display S.A. β-gal activity”.
